Measured values: ChEMBL document CHEMBL1201862, “PubChem BioAssay data set” (2004)
Calls of active or inactive are those of the source.

Key:
[1] = target: T1, Heat shock factor protein 1 (Mus musculus, UniProt P38532); test: inhibition of MG132-induced HSE-luciferase signal, confirmation, cell-based, NIH3T3, luminescence, dose retest (AID 2382); type: functional;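 note: NIH3T3 fibroblasts with HSF1-driven luciferase reporter stressed by proteasome inhibitor MG132; luminescence from HSF1-driven luciferase expression after 8 hours of MG132 stress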
T1 sequence (P38532 whole entry): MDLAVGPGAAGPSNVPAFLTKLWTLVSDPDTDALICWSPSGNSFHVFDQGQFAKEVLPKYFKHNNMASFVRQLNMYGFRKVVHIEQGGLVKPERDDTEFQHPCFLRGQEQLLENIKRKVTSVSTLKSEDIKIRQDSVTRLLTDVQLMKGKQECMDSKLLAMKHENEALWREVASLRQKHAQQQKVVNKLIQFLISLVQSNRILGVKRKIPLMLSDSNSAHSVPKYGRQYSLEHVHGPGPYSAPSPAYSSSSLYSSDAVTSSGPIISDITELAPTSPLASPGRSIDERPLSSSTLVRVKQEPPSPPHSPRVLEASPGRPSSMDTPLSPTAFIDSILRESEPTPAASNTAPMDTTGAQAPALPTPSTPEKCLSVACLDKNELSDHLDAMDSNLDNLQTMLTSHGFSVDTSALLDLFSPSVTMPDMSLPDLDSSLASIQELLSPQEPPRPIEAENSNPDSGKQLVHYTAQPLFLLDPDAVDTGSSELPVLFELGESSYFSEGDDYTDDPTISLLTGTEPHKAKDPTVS

Vero = test: cells; type: functional; conditions: Chlorocebus sabaeus
Beta-galactosidase = Beta-galactosidase (Escherichia coli, UniProt Q8VNN2); test: PubChem AID 485352; type: functional
[2] = target: Serine/threonine-protein phosphatase (Homo sapiens, UniProt Q9BPW0); test: PP5 phosphatase inhibitors, dose response, biochemical, fluorescence (AID 2395)
[3] = target: Potassium voltage-gated channel subfamily KQT member 2 (Rattus norvegicus, UniProt O88943, W236L); test: KCNQ2 channel potentiators, dose response, mechanism study for KCNQ2 potentiator project, cell-based, automated electrophysiology (AID 2603); type: functional
[4] = growth suppression of PTEN-null colon cells, dose response, cell-based, HCT116 PTEN knockout (AID 1047); type: functional;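 note: HCT116 colon tumor cells with PTEN knocked out; cells exposed to compound for 60 hours before readout; potency for loss of cell viability measured by luminescence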

Chain of Serine/threonine-protein phosphatase (Q9BPW0 whole entry): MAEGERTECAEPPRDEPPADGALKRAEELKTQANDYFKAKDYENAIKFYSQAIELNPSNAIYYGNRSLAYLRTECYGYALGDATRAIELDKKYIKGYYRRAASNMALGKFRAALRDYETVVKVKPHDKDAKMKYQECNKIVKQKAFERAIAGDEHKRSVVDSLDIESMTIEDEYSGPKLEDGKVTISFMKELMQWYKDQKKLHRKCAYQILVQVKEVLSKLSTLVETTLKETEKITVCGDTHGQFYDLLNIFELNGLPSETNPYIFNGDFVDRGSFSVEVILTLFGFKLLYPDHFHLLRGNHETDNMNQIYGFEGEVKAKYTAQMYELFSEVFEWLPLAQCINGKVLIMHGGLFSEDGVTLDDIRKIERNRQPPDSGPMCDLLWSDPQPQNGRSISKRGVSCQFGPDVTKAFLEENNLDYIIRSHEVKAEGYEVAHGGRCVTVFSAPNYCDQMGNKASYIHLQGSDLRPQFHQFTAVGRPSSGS
Chain of Beta-galactosidase (Q8VNN2 whole entry): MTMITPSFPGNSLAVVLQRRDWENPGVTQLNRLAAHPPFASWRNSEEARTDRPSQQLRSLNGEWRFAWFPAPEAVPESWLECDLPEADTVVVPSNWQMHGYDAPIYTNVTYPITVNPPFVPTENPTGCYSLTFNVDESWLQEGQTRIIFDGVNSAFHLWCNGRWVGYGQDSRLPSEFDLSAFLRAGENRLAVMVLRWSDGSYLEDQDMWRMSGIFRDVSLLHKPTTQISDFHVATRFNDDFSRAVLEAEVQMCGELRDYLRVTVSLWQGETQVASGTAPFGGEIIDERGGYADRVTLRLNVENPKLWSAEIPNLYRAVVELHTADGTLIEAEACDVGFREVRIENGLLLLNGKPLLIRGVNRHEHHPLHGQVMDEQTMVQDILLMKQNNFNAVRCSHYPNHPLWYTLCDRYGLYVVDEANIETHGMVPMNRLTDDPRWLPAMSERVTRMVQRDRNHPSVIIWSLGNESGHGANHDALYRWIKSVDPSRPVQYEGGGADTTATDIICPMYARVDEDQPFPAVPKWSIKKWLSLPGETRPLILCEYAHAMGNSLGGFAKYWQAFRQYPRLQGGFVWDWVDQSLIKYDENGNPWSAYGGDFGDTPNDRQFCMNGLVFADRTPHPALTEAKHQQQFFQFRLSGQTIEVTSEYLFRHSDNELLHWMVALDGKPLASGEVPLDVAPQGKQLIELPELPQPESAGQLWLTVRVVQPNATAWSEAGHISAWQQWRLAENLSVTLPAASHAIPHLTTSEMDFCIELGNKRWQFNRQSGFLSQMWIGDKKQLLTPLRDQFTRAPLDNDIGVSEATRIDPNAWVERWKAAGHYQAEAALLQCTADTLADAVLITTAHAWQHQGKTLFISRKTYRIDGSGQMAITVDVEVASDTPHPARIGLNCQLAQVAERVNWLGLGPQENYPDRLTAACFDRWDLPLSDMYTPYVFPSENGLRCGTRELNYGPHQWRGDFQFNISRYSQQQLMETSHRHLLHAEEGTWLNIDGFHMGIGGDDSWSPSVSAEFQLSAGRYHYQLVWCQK
Chain of Potassium voltage-gated channel subfamily KQT member 2 (O88943 whole entry W236L): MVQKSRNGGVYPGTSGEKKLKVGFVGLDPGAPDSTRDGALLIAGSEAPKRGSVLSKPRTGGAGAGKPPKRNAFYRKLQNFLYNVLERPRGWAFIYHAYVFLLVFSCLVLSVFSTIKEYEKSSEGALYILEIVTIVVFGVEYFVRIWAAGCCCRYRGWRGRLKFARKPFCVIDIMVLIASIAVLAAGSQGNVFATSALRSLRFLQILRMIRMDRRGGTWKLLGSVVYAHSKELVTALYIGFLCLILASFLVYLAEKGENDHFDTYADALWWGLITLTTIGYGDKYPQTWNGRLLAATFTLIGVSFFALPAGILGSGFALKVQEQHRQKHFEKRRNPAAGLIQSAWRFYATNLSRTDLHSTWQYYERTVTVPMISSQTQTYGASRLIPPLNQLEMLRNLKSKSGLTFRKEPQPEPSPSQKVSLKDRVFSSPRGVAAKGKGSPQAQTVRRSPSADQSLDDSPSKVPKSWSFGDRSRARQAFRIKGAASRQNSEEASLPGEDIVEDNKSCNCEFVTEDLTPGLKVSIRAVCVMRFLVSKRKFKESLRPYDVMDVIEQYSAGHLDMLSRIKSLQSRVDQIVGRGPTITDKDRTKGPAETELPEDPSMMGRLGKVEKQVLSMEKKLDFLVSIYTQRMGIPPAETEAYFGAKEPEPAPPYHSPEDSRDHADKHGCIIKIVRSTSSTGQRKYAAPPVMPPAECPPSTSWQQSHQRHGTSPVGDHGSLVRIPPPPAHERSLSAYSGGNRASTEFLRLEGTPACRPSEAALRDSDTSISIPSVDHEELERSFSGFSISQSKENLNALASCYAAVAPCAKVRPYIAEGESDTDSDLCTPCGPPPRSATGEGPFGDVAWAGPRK

COC(=O)C[C@]1(C(=O)OC)CN(C#N)N(c2ccc(Cl)cc2)C12c1ccccc1-c1ccccc12
EC50 [1]: 2.74 µM (active)

O=C(Nc1ccc(C#Cc2ccccc2)cc1)C1CC1
CC50 (Vero): > 25 µM (active)

CCCCn1c(NC(=O)c2ccco2)c(C(=O)OCC)c2nc3ccccc3nc21
EC50 (Beta-galactosidase): > 40 µM (inactive)
IC50 [2]: 10.3 µM (not active)

Cc1ccccc1NC1=C/C(=N\S(=O)(=O)c2ccc(C(=O)O)cc2)c2ccccc2C1=O
EC50 [3]: 9.51 µM (active)

Cc1ccc(NC2=C/C(=N/S(=O)(=O)c3cccs3)c3ccccc3C2=O)cc1
EC50 [4]: 3.56 µM (active)
